Measured values: ChEMBL document CHEMBL1201862, “PubChem BioAssay data set” (2004)
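Exposure lasted 48 hours, with cells grown in 96-well plates and compounds tested at five concentrations. Here, GI50 denotes the concentration required for 50% inhibition of growth.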 The source made the active and inactive calls. Rule as the data show it: active = GI50 up to about 1.1 µM and inactive = higher.

Experiments:
Assay in all cases: inhibition of tumour cell growth, NCI panel, 48 h
ACHN = tested on: ACHN
EKVX = tested on: EKVX
HOP-62 = tested on: HOP-62
IGROV-1 = tested on: IGROV-1
K562 = tested on: K562
MDA-N = tested on: MDA-N
NCI-H226 = tested on: NCI-H226
NCI-H23 = tested on: NCI-H23
OVCAR-3 = tested on: OVCAR-3
OVCAR-4 = tested on: OVCAR-4
RPMI-8226 = tested on: RPMI-8226
RXF 393 = tested on: RXF 393
SF-268 = tested on: SF-268
SK-MEL-2 = tested on: SK-MEL-2
SK-OV-3 = tested on: SK-OV-3
SR = tested on: SR
U-251 = tested on: U-251
UACC-257 = tested on: UACC-257
UO-31 = tested on: UO-31

Measured: GI50

COC(=O)C1Cc2c([nH]c3ccccc23)C(c2cccc(O)c2)N1 (stereo not given)
inactive: ACHN 60 µM | EKVX 40.3 µM | HOP-62 75.9 µM | IGROV-1 37.8 µM | K562 33.1 µM | MDA-N 19.5 µM | NCI-H226 40.7 µM | NCI-H23 29.8 µM | OVCAR-3 42 µM | OVCAR-4 41.2 µM | RPMI-8226 28.4 µM | RXF 393 25.8 µM | SF-268 40.8 µM | SK-MEL-2 27 µM | SK-OV-3 56.4 µM | SR 28.2 µM | U-251 35 µM | UACC-257 90.8 µM | UO-31 80 µM

O=P(OCc1ccccc1)(OCc1ccccc1)C(O)/C=C/c1ccccc1 (stereo not given)
inactive: ACHN 29.1 µM | EKVX 33.3 µM | HOP-62 21.8 µM | IGROV-1 19.6 µM | K562 34.2 µM | MDA-N 17.3 µM | NCI-H226 34.8 µM | NCI-H23 20.2 µM | OVCAR-3 20.9 µM | OVCAR-4 21.4 µM | RPMI-8226 23.6 µM | RXF 393 33.8 µM | SF-268 16.9 µM | SK-MEL-2 20.7 µM | SK-OV-3 45.1 µM | SR 19.9 µM | U-251 13.1 µM | UACC-257 17 µM | UO-31 26.6 µM

CN(C)CCCNc1ncnc2c1ncn2C1OC(CO)C(O)C1O (stereo not given)
inactive: ACHN > 100 µM | EKVX > 100 µM | HOP-62 > 100 µM | IGROV-1 93.5 µM | K562 > 100 µM | MDA-N > 100 µM | NCI-H226 > 100 µM | NCI-H23 > 100 µM | OVCAR-3 > 100 µM | OVCAR-4 > 100 µM | RPMI-8226 > 100 µM | RXF 393 > 100 µM | SF-268 > 100 µM | SK-MEL-2 > 100 µM | SK-OV-3 > 100 µM | SR > 100 µM | U-251 > 100 µM | UACC-257 > 100 µM | UO-31 > 100 µM

COc1ccc(NS(=O)(=O)c2ccc(NC(NC(=O)CC(C)C)(C(F)(F)F)C(F)(F)F)cc2)nn1
inactive: ACHN > 100 µM | EKVX > 100 µM | HOP-62 > 100 µM | IGROV-1 > 100 µM | K562 > 100 µM | MDA-N > 100 µM | NCI-H226 > 100 µM | NCI-H23 > 100 µM | OVCAR-3 > 100 µM | OVCAR-4 > 100 µM | RPMI-8226 > 100 µM | RXF 393 > 100 µM | SF-268 > 100 µM | SK-MEL-2 > 100 µM | SK-OV-3 > 100 µM | SR > 100 µM | U-251 > 100 µM | UACC-257 > 100 µM | UO-31 > 100 µM

Nc1nncc2[nH]cnc12
inactive: ACHN 50.1 µM | EKVX 52.1 µM | HOP-62 > 100 µM | IGROV-1 57.8 µM | K562 7.01 µM | MDA-N 49.5 µM | NCI-H226 > 100 µM | OVCAR-3 > 100 µM | OVCAR-4 > 100 µM | RPMI-8226 14.4 µM | RXF 393 > 100 µM | SF-268 50.5 µM | SK-MEL-2 > 100 µM | SK-OV-3 41.5 µM | SR > 100 µM | U-251 > 64.3 µM | UACC-257 63.5 µM | UO-31 > 100 µM

O=C(O)Cc1ccc(/N=N/c2c(O)c(C(=O)O)cc3ccccc23)cc1
inactive: ACHN > 100 µM | EKVX > 100 µM | HOP-62 > 100 µM | IGROV-1 > 100 µM | K562 > 100 µM | MDA-N > 100 µM | NCI-H226 > 100 µM | OVCAR-3 > 100 µM | OVCAR-4 > 100 µM | RPMI-8226 > 100 µM | RXF 393 > 100 µM | SF-268 > 100 µM | SK-MEL-2 > 100 µM | SK-OV-3 > 100 µM | SR > 100 µM | U-251 > 100 µM | UACC-257 > 100 µM | UO-31 > 100 µM

CC(C)(Cc1ccccc1)N1C(=O)N1C(C)(C)Cc1ccccc1
inactive: EKVX 92.7 µM | IGROV-1 29.9 µM | K562 27.4 µM | MDA-N 38.8 µM | NCI-H226 16.4 µM | NCI-H23 24 µM | OVCAR-3 > 100 µM | OVCAR-4 34.7 µM | RPMI-8226 16.5 µM | RXF 393 14.8 µM | SF-268 53.2 µM | SK-MEL-2 19.7 µM | SK-OV-3 57.4 µM | SR 20.6 µM | U-251 38 µM | UACC-257 40.9 µM | UO-31 14.1 µM

CCOC(=O)CCC(NC(=O)c1ccc(Nc2nc3ccccc3nc2C(=O)OCC)s1)C(=O)OCC (stereo not given)
inactive: EKVX > 100 µM | IGROV-1 > 100 µM | K562 > 100 µM | MDA-N > 100 µM | NCI-H226 21.1 µM | OVCAR-3 > 100 µM | OVCAR-4 37.2 µM | RPMI-8226 > 100 µM | RXF 393 66.1 µM | SF-268 98.4 µM | SK-MEL-2 > 100 µM | SK-OV-3 > 100 µM | SR > 100 µM | U-251 > 100 µM | UACC-257 > 100 µM | UO-31 > 100 µM
